Measured values from a melting point compilation (Tetko et al.; mined from patent text by program, amines drawn as free bases though some values may be those of a salt).

With Cc1oc(-c2ccccc2)nc1COc1ccc2cc(C=CC=C3SC(=O)NC3=O)ccc2c1 the melting point was 267 to 268 °C. In the case of CNC(=O)c1cc2n(n1)-c1ccc(Cl)cc1C(c1ccccc1)=NC2, the melting point was 170 to 172 °C. With COC(=O)c1ccc(-c2ccc(-c3ccc4c(c3)C(C)(C)CCC4(C)C)n2C)cc1 the melting point was 104 to 105 °C. With C=CCOC(=O)c1c(Cl)c(OC)cc(O[Si](C)(C)C(C)(C)C(C)C)c1C=O the melting point was 97 °C. O=C(Nc1ccccc1O)C1CCc2nc[nH]c2C1 (stereo not drawn) showed a melting point of 203 to 205 °C. With O=C(NCc1ccc(F)c(F)c1)c1ccnc(N2CCN(Cc3ccccn3)C2=O)c1 the melting point was 143 to 145 °C. Molecule O=C(O)COc1c(Br)cc(C(=O)c2c(Cc3ccccc3)oc3ccccc23)cc1Br has a melting point of 165 to 167 °C. For CCCCCCN1c2ccc(OC)cc2C(C)(C)C12C=Cc1cc([N+](=O)[O-])cc(OC)c1S2 (stereo not drawn), the melting point was 97 to 98 °C. Molecule COC(=O)C1CC(=O)N(Cc2ccccc2)C1 (stereo not drawn) has a melting point of 63 to 65 °C. Work on Cc1cc2c(CCl)c(CO)c(Cl)nc2cc1Cl yielded a melting point of 169 to 170 °C. Cn1ccc2c1CCN1C(=O)CCC21 (stereo not drawn) gave a melting point of 122 to 125 °C. In the case of O=C(NCc1ccccc1)NOCC(O)CN1CCCCC1 (stereo not drawn), the melting point was 100 to 101 °C. With CCCCCCCCC(CCCCCCCC)n1c2ccsc2c2sccc21 the melting point was 60 °C. Work on Cc1c(CCN(C)C(=O)OC(C)(C)C)c2cc(S(=O)(=O)c3cc(F)cc(F)c3)ccc2n1C yielded a melting point of 158 to 162 °C. CC(C)(C)c1ccc(CC(=O)O)c(Cc2ccc(CC(=O)O)cc2)c1 gave a melting point of 138 to 139 °C. In the case of CCc1c(N)c(C(N)=O)nn1C1CN(C(C)C)C1, the melting point was 195 to 200 °C. Work on CCOC=C(C(=O)OCC)C(=O)c1ccc(I)cc1Cl yielded a melting point of 237 to 240 °C. In the case of O=C(C=C1CC(C(=O)O)Nc2cc(Cl)ccc21)Nc1ccccc1 (racemic), the melting point was 118 to 120 °C. With COC(=O)C(C)(C)OCc1oc(-c2ccc(Cl)cc2)nc1C the melting point was 88 to 90 °C. Cc1ccc(-c2nc3ccc(N)cn3c2CNC(=O)CC(C)C)cc1 gave a melting point of 245 to 247 °C. With CCOC(=O)c1c(N)c2cc(Cl)ccc2n1C(=O)C(F)(F)F the melting point was 249 to 251 °C. In the case of O=C(Cn1c(-c2ccccc2)ncc(NC(=O)OCc2ccccc2)c1=O)NC(Cc1ccccc1)C(O)C(F)(F)F (stereo not drawn), the melting point was 198 to 202 °C. Molecule Cn1c(CO)ncc(OCc2ccccc2)c1=O has a melting point of 83 to 84 °C. For CC(=O)OC12Oc3c(C(C)(C)C)cc(C(C)(C)C)cc3C1(OC(C)=O)C(=O)c1ccccc12 (stereo not drawn), the melting point was 242 to 247 °C. For CC(=O)CCCNC(=O)c1c2ccc(Cl)cc2c(-c2ccccc2)n1C, the melting point was 128 to 131 °C. Work on CC(C)(C)OC(=O)NC1CCc2ccccc2C(F)C1=O (stereo not drawn) yielded a melting point of 127 to 129 °C. With CN1C(=O)C(C)(Cc2ccccc2)N(C)C(=O)C1C1NC(=O)c2cccc(F)c21 (stereo not drawn) the melting point was 183 to 185 °C. In the case of CN(C)c1ccc(-c2nc3c(N[C@H]4[C@@H](C(N)=O)[C@@H]5C=C[C@H]4C5)ccnc3[nH]2)cc1, the melting point was 245 to 251 °C. COC(=O)c1cc(-c2cccc(Cl)c2Cl)c(C(=O)OC)[nH]1 showed a melting point of 143 to 145 °C. O=[N+]([O-])c1ccc(S(=O)(=O)NCC2CCN(C[C@H]3COc4ccc(Cl)cc4O3)CC2)cc1 gave a melting point of 147 to 148 °C. O=C(Nc1ccc(-n2nc(C(F)(F)F)cc2C(F)(F)F)cc1)c1cc(Br)c(Br)s1 showed a melting point of 142 to 144 °C. With CC(C)=CCOc1c(-c2ccc(S(C)(=O)=O)cc2)cnn(-c2cccc(Cl)c2)c1=O the melting point was 113 to 115 °C. COc1cccc(C2(O)c3cccc(O)c3C(=O)c3c(O)cccc32)c1 gave a melting point of 187 °C. In the case of CC(C)(C)NCC(O)c1ccc(N)c(F)c1F (stereo not drawn), the melting point was 133 to 135 °C. Molecule Nc1ccc(NC(=O)[C@@H](NC(=O)c2ccc(C(=O)O)cc2)c2ccccc2)cc1 has a melting point of 151 °C. Molecule CCCCCCCCCCCCCCCCCCOc1cc(OC(=O)C(c2ccccc2)c2ccccc2)cc(C(=O)OCc2ccccc2)c1 has a melting point of 47 to 49 °C. For CCOC(C)n1c(Cl)nc(-c2ccc(OC)cc2)c1-c1ccc(OC)cc1 (stereo not drawn), the melting point was 118 to 120 °C. Molecule COc1ccc2c(c1)CN(C(=O)CN1CCCC1)N=C2Cc1c(Cl)cncc1Cl has a melting point of 148 to 150 °C. COc1ccc2c(c1OC)CCC1CN(C(=O)CCc3ccc([N+](=O)[O-])cc3)CC21 (stereo not drawn) gave a melting point of 231 to 234 °C. In the case of CCn1c(=O)n(OCc2ccccc2)c(=O)c2cc(F)c(N3CCN(C)CC3)nc21, the melting point was 178 to 179 °C. For Cc1cc2[nH]c(=O)c(C(=O)O)nc2cc1-n1ccc(CNC(=O)Nc2ccc(C(=O)O)cc2)c1, the melting point was greater than 300 °C. Molecule O=C(O)c1cccc(-c2ccc(F)c3cc(Cc4ccc(F)c(F)c4)sc23)c1 has a melting point of 224 to 225 °C. In the case of COCCNC(=O)c1ccc(C(=O)NS(=O)(=O)c2ccc(CCNC(=O)CCc3ccc(OC)c(OC)c3)cc2)cn1, the melting point was 87 to 89 °C. For COc1cc(C(C)=NO)ccc1OCCCN1CCC(c2noc3cc(F)ccc23)CC1, the melting point was 168 to 170 °C. With CS(=O)(=O)c1ccc([C@@H](CC2CCCC2)C(=O)Nc2cnc(C(CO)CO)cn2)cc1Cl the melting point was 110 to 120 °C. CCCCC(C#N)(Cn1ccnc1)c1ccc(S(=O)c2ccccc2)cc1 (stereo not drawn) gave a melting point of 55 to 61 °C. With CN(C)C(=O)COc1ccc2c(-c3ccc(Br)cc3)nsc2c1 the melting point was 159 °C. Molecule O=C(O)c1ccc(-c2nc(-c3cccc(OC(F)(F)F)c3)cs2)cc1 has a melting point of 233 to 234 °C. In the case of Cc1ccc(Oc2c(C)cc(N)c(C)c2Cl)c(C)c1, the melting point was 86 to 88 °C. COC1CCC2C3CCC4CC(C)(O)CCC4(C)C3CCC12C (stereo not drawn) gave a melting point of 151 to 154 °C. For N#Cc1ccc(C2C(=O)N(Cc3ccccc3)Cc3cncn32)cc1 (stereo not drawn), the melting point was 163 to 165 °C. CC(C)SN1N=C(c2cccc([N+](=O)[O-])c2)C(SC(C)C)(SC(C)C)C1=O gave a melting point of 73 to 74 °C. CN1CCC(OC2c3ccccc3CCn3c2nc(-c2ccccc2)c3CO)CC1 (stereo not drawn) gave a melting point of 120 °C. For CCCCCCCCCCCCCCCCCCOc1cc(OCCCCCCc2cccc(O)c2O)cc(C(=O)OC)c1, the melting point was 82 to 84 °C. CCn1ncc2c(NCC3CCCCC3)c3cc(OCC4CO4)ccc3nc21 (stereo not drawn) showed a melting point of 160 to 163 °C. For COc1ccc(CC#N)c2c1OC(C)(C)O2, the melting point was 58 to 59 °C. For O=C(CC(=O)c1ccc(F)cc1)c1ccc(F)cc1, the melting point was 70 to 72 °C. In the case of Cn1nc(-c2cnc(N)nc2-c2ccc(Cl)c(Cl)c2)ccc1=O, the melting point was 238 °C. With CCC(C)(C)NC(Nc1ccc2c(c1)OCO2)=C(C#N)S(C)(=O)=O the melting point was 86 to 88 °C. CC(C)(C)c1cc(C(=O)NCC(=O)O)ccc1OCc1ccccc1 gave a melting point of 172 to 174 °C. CC(C)(C)N(CCOCC#Cc1cncs1)C(=O)C(=O)O showed a melting point of 104 to 105 °C. CCCCCCCCCCNCC(O)CO (stereo not drawn) gave a melting point of 65 to 67 °C. In the case of CC(N)CCc1ccc(C(N)=O)s1 (racemic), the melting point was 65 to 75 °C. With COc1cc2nc(N)nc(-c3ccc(I)cc3)c2cc1OC the melting point was 240 to 242 °C. Molecule Cc1cc(C#N)cc(C)c1Nc1nc(Nc2ccc(C#N)cc2)ncc1Br has a melting point of 277 to 280 °C. With COC1=NS(=O)(=O)N(C)C(Oc2ccc([N+](=O)[O-])cc2)=N1 the melting point was 220 to 221 °C. COC(=O)c1ccc(N)c(S(C)(=O)=O)c1 gave a melting point of 146 °C. Work on c1ccc2nc3[nH]ncc3cc2c1 yielded a melting point of 104 to 106 °C. Work on C=C(CCCO)c1ccc(C(=O)OC)cc1 yielded a melting point of 28 to 30 °C. In the case of CCOc1nc(NC)nc(NC(=O)NS(=O)(=O)c2cccc3c2nnn3C)n1, the melting point was 203 to 209 °C. CCCCCCCOc1ccc(CCC(CO)(CCO)NC(=O)c2cc([N+](=O)[O-])cc([N+](=O)[O-])c2)cc1 (single isomer, unassigned; (+)) gave a melting point of 78 to 79 °C. CCc1cccc(CC(=O)O)c1OCCCc1cn(-c2ccc(Cl)cn2)nc1C(CC)CC showed a melting point of 114 to 115 °C. CCN(CC)C(=O)C1CCC2C3CC=C4N(C)C(=O)CCC4(C)C3CCC12C (stereo not drawn) showed a melting point of 115 to 118 °C. Cc1cc(C)c2nc(C3CC3)n(Cc3ccc(C(CC(=O)O)c4ccccc4)cc3)c2n1 (stereo not drawn) gave a melting point of 189 to 190 °C. Work on COC(=O)C(Br)c1ccc(OCCCOc2ccc(Cl)cc2)cc1 (stereo not drawn) yielded a melting point of 49 to 53 °C. Molecule NC(=O)[C@@H]1COCN1C(=O)CCl has a melting point of 131 to 133 °C. With CCCc1nc2c(N)nc(C)c(C)c2n1CCCS(=O)(=O)c1ccc(C(=O)OCC)cc1 the melting point was 169 to 171 °C. Molecule O=C(O)c1ccc(C(=O)c2cccnc2)cc1 has a melting point of 266 to 267 °C. CC(C)(C)c1csc(-c2cc3cc(CCl)ccc3o2)n1 gave a melting point of 117 to 119 °C. Molecule Cc1oc(-c2ccccc2)nc1COc1ccc(I)cn1 has a melting point of 129 to 130 °C. In the case of CCCc1c(OCCOc2ccc(N)cc2)ccc(C(C)=O)c1O, the melting point was 73 to 74 °C. Molecule Cc1cc(Cl)c(OCCO[Si](C)(C)C(C)(C)C)cc1Nc1nnc2n1[C@H](c1ccc(F)cc1)COC2 has a melting point of 141 to 142 °C. Molecule CCOC(=O)C(CO)NC(=O)C(N)(CC(=O)O)NC(=O)C(C)C (stereo not drawn) has a melting point of 175 to 178 °C. In the case of OCc1c(Cl)c(Cl)c(Cl)c(CO)c1Cl, the melting point was 228 to 230 °C. O=C1CCN(Cc2ccccc2)CC1=C(c1ccccc1)c1ccccc1 gave a melting point of 135 to 137 °C. COc1cn(-c2ccc(C3CC3)cc2F)nc(-c2ccnn2-c2ccccc2)c1=O showed a melting point of 140 to 142 °C. Molecule O=C(O)CCCCC=Cc1cn(-c2cccnc2)c2ccccc12 has a melting point of 124 to 125 °C. Molecule O=c1c(N2CCCNCC2)nc2ccccc2n1-c1cccc(F)c1 has a melting point of 128 to 129 °C. In the case of CC(C)CN(C)c1cc2c(cc1C(F)(F)F)NC(=O)CC(c1cccc(-n3cncn3)c1)=N2, the melting point was 198 °C. COC(=O)c1ccc(Cn2c(C)cn(C3CCc4ccccc4C3)c2=S)cc1 (stereo not drawn) gave a melting point of 140 to 141 °C. With COC(=O)c1ccc(Sc2cccc(OCCCCl)c2)cc1 the melting point was 47 to 49 °C. In the case of CCCCc1nc2cccc(C=O)c2n1Cc1ccccc1Cl, the melting point was 114 to 115 °C. In the case of CCC(=O)Oc1ccc2nc(NC(=O)Nc3ccccc3)sc2c1, the melting point was 212 to 215 °C. In the case of CNC(=O)Oc1ccc(NS(C)(=O)=O)c(C)c1, the melting point was 167 to 169 °C. CCOC(=O)c1cc2n(c1)CN(CCC#N)c1c(OC)cccc1-2 gave a melting point of 146 to 147 °C. Work on c1ccc2c3c4c(nc2c1)CCCC4SCCN3 (stereo not drawn) yielded a melting point of 171 to 175 °C. With CN(C)S(=O)(=O)c1cc2[nH]c(=O)c(=O)[nH]c2cc1[N+](=O)[O-] the melting point was 318 to 332 °C. Molecule O=C(C(=O)N(CCN1CCOCC1)S(=O)(=O)C(F)(F)F)N(CCN1CCOCC1)S(=O)(=O)C(F)(F)F has a melting point of 62 to 64 °C.
